The text below walks through data of US20140323457A1, “BETA-O/S/N FATTY ACID BASED COMPOUNDS AS ANTIBACTERIAL AND ANTIPROTOZOAL AGENTS” (LUDWIG-MAXIMILIANS-UNIVERSITÄT MÜNCHEN, priority 2011, published 2014).

Molecules are shown by their SMILES. pEC50: −log10 of the molar value. Like-named read-outs stand apart in the source and are kept apart here.

Broadly, the MIC is the lowest concentration found to suppress growth. Broadly, the pEC50 is −log10 of the EC50, conventionally taken in molar units. High values mean a low EC50, low ones a high EC50. In general, half-life refers to the time needed for the level to fall by half in the phase considered. High values mean slow decline, low ones rapid decline.

In data set [1] the test system is S. aureus strain NCTC 8325. Description: minimal inhibiting concentration (MIC) in liquid bacterial culture. In kind it is cell-based. The following applies: overnight 37° C., read-out: MIC. The method, then: (§1) 1 ml of an appropriate bacterial broth for the standard laboratory S. aureus strain NCTC 8325 were inoculated with 1*10^6 cfu. The cultures were kept overnight at 37° C. with gentle shaking 300 rpm in the presence of compounds AVU1Acid, AVU1AAc, AVU1AA or VK273 according to the present invention at different concentrations or dimethyl sulfoxide (DMSO) as control. Different beta-lactone virulence inhibitors were used as reference compounds. Following overnight incubation the optical density was measured in order to determine the minimal inhibiting concentration (MIC), which is defined as the lowest concentration of an antimicrobial that will inhibit the visible growth of a microorganism after overnight incubation. A 100 μl fraction of the supernatant of the grown bacterial cultures was subsequently analysed for the content of secreted bacterial hemolysins by addition of sheep red blood cells (10% v/v in PBS) and the measurement of the optical density at 410 nm after 30 min incubation at 37° C.

The test system of data set [2] is S. aureus strain NCTC 8325. Description: liquid culture-based hemolysis assay (secreted hemolysins, sheep red blood cells). Type of data set: cell-based. The method, then:
The inhibition of hemolysin production has thus been further analysed in liquid bacterial cultures in order to evaluate their potential effects on bacterial growth simultaneously. Besides AVU1Acid, AVU1AAc, AVU1AA and VK273 the following further compounds were tested in liquid bacterial cultures:
as §1
The following results were obtained in further liquid culture-based hemolysis assays. Since the assays were performed at different times with different charges of sheep red blood cells AVU1 has been tested as a reference substance in each assay. The resulting EC50 values determined for the tested compounds have to be assessed with respect to the EC50 value determined for AVU1.

The target in data set [3] is T1, CIpP protease from S. aureus NCTC8325 (SaCIpP) (Staphylococcus aureus, UniProt Q2G036).
T1 construct: made in house; host or cells: E. coli
T1 sequence (Q2G036 1-195): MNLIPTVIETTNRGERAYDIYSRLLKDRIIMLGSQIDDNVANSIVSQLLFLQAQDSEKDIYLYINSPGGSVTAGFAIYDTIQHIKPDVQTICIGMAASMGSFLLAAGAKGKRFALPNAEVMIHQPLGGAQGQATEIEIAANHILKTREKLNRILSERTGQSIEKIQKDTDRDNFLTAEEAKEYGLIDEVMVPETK
Description: in vitro inhibition of recombinant S. aureus CIpP with SLY-AMC substrate. The following applies: inhibitor 2 mM (1000×), 30 min RT; SLY-AMC 200 μM; FIG. 3. Type of data set: biochemical. The method, then: The CIpP protease from S. aureus NCTC8325 (SaCIpP) was recombinantly overexpressed in E. coli and purified in order to investigate enzyme inhibition using SLY-AMC (N-succinyl-Leu-Tyr-7-amido-4-methylcoumarin) as fluorogenic model substrate.
Precisely, 9 μl of SaCIpP in buffered solution (final concentration 0.05 mg/ml, 2 μM; buffer: 100 mM NaCl, 20 mM Tris, pH 7.0) were incubated in the presence of 1 μl of various inhibitors (final concentration 2 mM=1000×) for 30 min at room temperature (RT). Subsequently, SLY-AMC was added to a final concentration of 200 μM and the increase in fluorescence due to enzymatic substrate proteolysis was measured using a TECAN GENios Pro™ plate reader at 380/440 nm (excitation/emission) at time intervals of 60 s over 40 min at 37° C. The enzymatic activity was determined as the slope of fluorescence (2=440 nm) over time. As positive controls, the in vivo active beta-lactone compound AVU1 (“U1”; WO 2009/106211) and the in vitro potent CIpP beta-lactone inhibitor D3 (WO 2009/106211) were employed.

The next data set addresses T2, CIpP (Staphylococcus aureus, UniProt Q2G036).
T2 construct: Living S. aureus NCTC8325 cells from a fresh stationary liquid culture were aliquoted; endogenous in cells; host or cells: living S. aureus NCTC8325 cells
T2 sequence (Q2G036 1-195): T1 sequence (Q2G036 1-195)
Nature of the data set: competitive ABPP proteome labeling of living S. aureus cells with U1P probe. The following applies: FIG. 4. Type of data set: binding. The text has this:
The compound U1P was used as a probe for activity-based labeling (activity-based protein profiling, ABPP) of the S. aureus NCTC 8325 proteome, as described in WO 2009/106211.
The U1P ABPP probe represents the lead structures of the known beta-lactone CIpP inhibitors modified with a terminal alkyne group. This compound is both active in hemolysis inhibition and CIpP inhibition. The terminal alkyne group comprised in UIP can be used for appending a fluorophore such as rhodamine-azide using click chemistry (1,3-dipolar Huisgen cycloaddition), which allows to scan the proteome of S. aureus for possible covalent binding partners. This compound consistently labels CIpP protease in a covalent manner in S. aureus proteomes.
The inventors used this compound in order to investigate whether compounds according to the present invention are able to reduce or suppress by non-covalent binding the covalent binding of the U1P ABPP probe to proteins of the S. aureus proteome. For a detailed description of the technique underlying these experiments see T. Böttcher, M. Pitscheider S. A. Sieber, Angew Chem Int Ed Engl. 2010, 2680.
Living S. aureus NCTC8325 cells from a fresh stationary liquid culture were aliquoted to equivalents of 1 ml of OD600=2. Bacterial cells were washed and resuspended in 100 μl PBS. Bacterial cell aliquots were then pre-incubated with the compounds AVU1AA or VK273 of the invention for 1 h at RT at final concentrations of 5 or 10 mM. Subsequently, the covalent ABPP probe UIP was added to a final concentration of 100 μM for 30 min at RT. After the competitive labeling procedure bacterial cells were washed twice, disrupted and labeled with rhodamine-azide using click chemistry. The labeled S. aureus proteome samples were separated by SDS-PAGE and visualized using fluorescence scanning.

A short description of data set [4]: stability in mouse plasma. Type of data set: in vitro ADME. The following applies: 100 μM, 37° C., 0-240 min; FIG. 8, FIG. 10. As for the experimental part: (§2) We investigated the stability of the compound herein in plasma preparations in comparison the beta-lactone compounds. Human plasma was obtained lyophilized from Sigma and reconstituted in sterile H2O. For human plasma 3.8% trisodium citrate was used as anticoagulant. Mouse plasma was prepared from whole blood samples from SKH-1 and Balb/C mice using Lithium-Heparin as anticoagulant and pooled from at least three different donor animals. Plasma samples were sterile filtered and stored in aliquots at −20° C. […] Test compounds were diluted 1:100 from a DMSO stock solution to a final concentration of 100 μM in both human and mouse plasma prewarmed for 10 min in an orbital shaker to 37° C. Test compounds were further incubated at 37° C. in the orbital shaker. Samples were withdrawn at time points 0, 5, 10, 20, 30, 60, 120, 240 min and immediately quenched by the addition of an equal volume of ice-cold acetonitrile. Subsequently, all samples were spun at maximum speed in a microcentrifuge to pellet precipitated proteins and samples were prepared for LC-MS analysis. Compound quantification occurred through analysis via the LTQ-FT high resolution mass-spectrometer and XCalibur-Software purchased at Thermo Scientific, Dreieich, D-63303 Germany.

Data set [5] is described as follows: stability in human plasma. The following applies: SKH-1 and Balb/C (mouse plasma); positive control at 100 μM in every experiment (human and mouse plasma), 37° C. Type of data set: in vitro ADME. The method, then:
as §2

On to `C=CCCCCCCCC(CO)C(O)CCc1ccccc1` (stereo not shown) [VK273, 2-(non-8-enyl)-5-phenylpentandiol-1,3], for which, in data set [1] (Assay 1), the MIC is over 1000 µM. The molecule also showed a pEC50 in data set [2] (Assay 1, hemolysin production) of 4.61. The “inhibition of SaCIpP” value in data set [3] was “inhibit SaCIpP at an at least comparable level as the in vivo active beta-lactone reference compound AVU1”. Moreover, on CIpP (bacterial cells incubated with compound alone), the “labeling in the absence of U1P” value is “did not result in any unspecific labeling”. In addition, the “target binding of U1P after pre-incubation with competitor” value on CIpP (pre-incubation 1 h at RT at 5 or 10 mM, U1P 100 μM 30 min) is “significantly reduced target binding of U1P”.

In the case of `C=CCCCCCCC[C@H]1C(=O)O[C@@H]1CCc1ccccc1` [AVU1, reference compound], the MIC was over 1000 µM in data set [1] (Assay 2); over 1000 µM in data set [1] (Assay 3); over 1000 µM in data set [1] (Assay 4); over 1000 µM in data set [1] (Staphylococcus aureus, NCTC8325, Assay 1). Further, the pEC50 in data set [2] (Staphylococcus aureus, NCTC8325, Erythrocyte, Assay 1, hemolysin production) is 3.85; in data set [2] (Staphylococcus aureus, NCTC8325, Erythrocyte, Assay 2, hemolysin production, assess relative to AVU1), 4.30 to 5.00; in data set [2] (Staphylococcus aureus, NCTC8325, Erythrocyte, Assay 3, hemolysin production, assess relative to AVU1), 4.00 to 4.30; in data set [2] (Staphylococcus aureus, NCTC8325, Erythrocyte, Assay 4, hemolysin production, assess relative to AVU1) it was 4.51. Moreover, the “stability in mouse plasma” value in data set [4] is reported as “degraded within a few minutes”.

Regarding `C#CC[C@H]1C(=O)O[C@@H]1CCc1ccccc1` [U1P, reference compound], the “labeling signal of probe” value at CIpP (in the absence of competitive compounds) is “strong labeling signal with CIpP as the main target”.

`CCN(CC)CCOC(=O)c1ccc(N)cc1` [Procaine] showed a half-life at 100 μM in data set [5] of 6 to 9 min.
